In PMC10669220, “In Vitro α-Glucosidase and α-Amylase Inhibition, Cytotoxicity and Free Radical Scavenging Profiling of the 6-Halogeno and Mixed 6,8-Dihalogenated 2-Aryl-4-methyl-1,2-dihydroquinazoline 3-Oxides” (Antioxidants, 2023):
Where two headings read alike, the source gives them in different places.

What was measured:
[1] = test system: human embryonic kidney (HEK293-T) cell line; experiment: MTT cytotoxicity assay, HEK293-T; conditions: for IC50: read-out: IC50 Hek293-T; for Cell viability percentage, HEK293-T: Table S4
Procedure: (§1) Cells were cultured in sterile Dulbecco’s Minimal Essential Medium (DMEM, Gibco) supplemented with 10% fetal bovine serum (FBS) and 1% penicillin-streptomycin solution. […] Cell counting was carried out using a handheld automated cell counter (Scapter 3.0™, Merck, Burlington, MA, USA) and seeded (1 × 10^4 cells/well) into a 96-well plate. After 24 h, the cells were treated with different concentrations (1, 5, 10, 25 and 50 µM) of the test compounds and reference standards prepared in DMEM. The MTT solution (20 μL) prepared in PBS (5 mg/mL) was added to all the wells, and the plates were incubated for 4 h, followed by 1 h incubation with 100 µL of dimethyl sulfoxide (DMSO) to dissolve the formazan crystals. Untreated cells and 5% DMSO were included in the experiment as negative controls. All experiments were performed in triplicate. The plates were read at 570 nm at a reference wavelength of 630 nm using an ELISA plate reader (Varioskan Flash, ThermoFisher Scientific, Vantaa, Finland). The percentage of cell viability was calculated using the following formula, Cell viability %=At/Ab×100 where At represents the absorbance value of test compound and Ab the absorbance value of the blank. […] The data were expressed as means ± SD.

[2] = MTT cytotoxicity assay, HEK293-T; conditions: human, HEK293-T cells
Procedure: as §1

[3] = test system: breast cancer (MCF-7) cell line; experiment: MTT cytotoxicity assay, MCF-7; conditions: for Cell viability percentage, MCF-7: Table S2
Procedure: as §1

[4] = NO free radical scavenging assay (sodium nitroprusside/Griess); conditions: mean ± SD; sodium nitroprusside, Griess reagent, 550 nm
Procedure: The assay was conducted following the method described in our previous study. A mixture of 10 mM sodium nitroprusside (20 µL), phosphate buffer (5 µL) and the test compound (5 µL) were incubated at 25 °C in a 96-well plate for 2.5 h. After incubation, 20 µL of Griess reagent (1.00 g of sulfanilic acid + 0.10 g naphthylethylene diamine dihydrochloride) was added to the previous mixture and allowed to stand for 30 min. […] Each experiment was performed in triplicate, and the average was taken. The average obtained from the absorbance readings was used to calculate the IC50 values in GraphPad prism from nonlinear regression dose–response curves.

human α-amylase = target: T1, human α-amylase (Homo sapiens, UniProt P04746); experiment: α-amylase inhibitor screening kit assay; type: biochemical; conditions: mean ± SD, triplicate; tested at 1, 5, 10, 25, 50 µM
T1 construct: purchased Abcam ab283391
T1 sequence (P04746 16-511): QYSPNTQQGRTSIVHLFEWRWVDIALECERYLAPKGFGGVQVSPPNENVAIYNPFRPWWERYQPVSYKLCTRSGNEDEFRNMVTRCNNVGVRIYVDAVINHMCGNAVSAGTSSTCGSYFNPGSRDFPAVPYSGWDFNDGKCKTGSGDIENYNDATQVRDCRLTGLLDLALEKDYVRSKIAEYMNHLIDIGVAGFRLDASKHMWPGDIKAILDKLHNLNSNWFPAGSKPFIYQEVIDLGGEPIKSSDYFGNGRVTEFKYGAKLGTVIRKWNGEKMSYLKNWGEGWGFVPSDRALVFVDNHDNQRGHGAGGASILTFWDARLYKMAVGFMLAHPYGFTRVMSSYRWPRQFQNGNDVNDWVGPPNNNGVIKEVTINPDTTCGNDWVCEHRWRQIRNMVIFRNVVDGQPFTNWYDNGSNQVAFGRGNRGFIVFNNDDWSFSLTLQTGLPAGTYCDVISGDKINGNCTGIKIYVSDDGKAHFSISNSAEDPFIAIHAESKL
Procedure: The α-amylase assay was performed in triplicate, using a 96-well plate following the procedure recommended by the manufacturer as outlined in the α-amylase inhibitor Screening Kit (Catalogue No. ab283391; Abcam). […] The average values obtained from the absorbance readings were used to determine the IC50 and standard deviation values in GraphPad prism from nonlinear regression dose–response curves.

[5] = target: T2, α-Glucosidase type 1 from baker's yeast (Saccharomyces cerevisiae, UniProt P53341); experiment: biochemical; conditions: mean ± SD, triplicate, tested at 1, 5, 10, 25, 50 µM
T2 construct: purchased Sigma Aldrich (Pty) Ltd. G5003
T2 sequence (P53341 whole entry): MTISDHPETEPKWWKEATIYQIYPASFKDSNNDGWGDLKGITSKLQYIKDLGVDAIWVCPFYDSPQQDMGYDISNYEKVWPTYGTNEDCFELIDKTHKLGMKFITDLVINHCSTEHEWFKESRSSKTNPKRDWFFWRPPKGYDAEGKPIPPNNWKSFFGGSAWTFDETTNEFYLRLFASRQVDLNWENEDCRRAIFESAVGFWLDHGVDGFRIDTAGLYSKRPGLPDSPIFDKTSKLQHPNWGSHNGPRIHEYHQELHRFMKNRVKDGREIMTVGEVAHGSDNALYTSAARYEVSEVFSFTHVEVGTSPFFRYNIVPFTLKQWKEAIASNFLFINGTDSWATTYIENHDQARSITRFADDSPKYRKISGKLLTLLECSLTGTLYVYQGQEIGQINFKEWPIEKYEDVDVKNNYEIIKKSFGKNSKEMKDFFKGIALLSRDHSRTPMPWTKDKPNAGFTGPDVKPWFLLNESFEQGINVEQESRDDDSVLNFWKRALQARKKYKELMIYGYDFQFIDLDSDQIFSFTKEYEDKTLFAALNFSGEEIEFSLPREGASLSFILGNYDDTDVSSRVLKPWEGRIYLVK
Procedure: The assay was conducted in triplicate following a method described in our previous study. […] After pre-incubation, 17 µL of 2 mM PNP-G was added. The absorbances were recorded in a 96-well microplate at 400 nm using an Elisa plate reader (Varioskan Flash, ThermoFischer Scientific, Vantaa, Finland). The average values obtained from the readings were used to determine the IC50 and standard deviation values using a GraphPad Prism software (Version 8, GraphPad Software Inc., San Diego, CA, USA). The average values obtained from the absorbance readings were used to determine the IC50 and standard deviation values in GraphPad prism from nonlinear regression dose–response curves.

[6] = test system: lung cancer (A549) cell line; experiment: MTT cytotoxicity assay, A549; conditions: for Cell viability percentage, A549: Table S3
Procedure: as §1

[7] = DPPH radical scavenging assay; conditions: mean ± SD; 45 min in the dark; 512 nm
Procedure: The DPPH radical scavenging assay was conducted following the procedure described in our previous study. The test compounds and ascorbic acid at various concentrations (ranging from 0 µM to 50 µM) in DMSO were mixed with a solution of DPPH (0.20 mM) in methanol and incubated in the dark for 45 min. Five absorbance readings were recorded at 512 nm using an Elisa plate reader (Varioskan Flash, ThermoFisher Scientific, Vantaa, Finland). The experiment was carried out in triplicate, and averaged values from the absorbance readings were used to determine the IC50 and standard deviation values in GraphPad prism from nonlinear regression dose–response curves.

[8] = Homo sapiens, MCF7, read-out: IC50 MCF-7
[9] = Homo sapiens, A549, read-out: IC50 A549

Structure (SMILES) | IC50 ([1]; Homo sapiens, HEK-293T) [µM] | viability at 1 µM [2] [%] | viability at 5 µM [2] [%] | viability at 10 µM [2] [%] | viability at 25 µM [2] [%] | viability at 50 µM [2] [%] | Cell viability percentage, MCF-7 ([3]; Conc. 1 (µM per method)) | Cell viability percentage, MCF-7 ([3]; Conc. 5 (µM per method)) | Cell viability percentage, MCF-7 ([3]; Conc. 10 (µM per method)) | Cell viability percentage, MCF-7 ([3]; Conc. 25 (µM per method)) | Cell viability percentage, MCF-7 ([3]; Conc. 50 (µM per method)) | IC50 [3, 8] [µM] | IC50 [4] [µM] | IC50 (human α-amylase) [µM] | Cell viability percentage, A549 ([6]; Conc. 1 (µM per method)) | Cell viability percentage, A549 ([6]; Conc. 5 (µM per method)) | Cell viability percentage, A549 ([6]; Conc. 10 (µM per method)) | Cell viability percentage, A549 ([6]; Conc. 25 (µM per method)) | IC50 [6, 9] [µM] | IC50 [7] [µM] | further results
CC1=[N+]([O-])C(c2ccc(F)cc2)Nc2ccc(Br)cc21 (stereo not shown) [Compound 3b] | 41.72 ± 0.04 | 41.6 | 41.3 | 40.3 | 38.5 | 35.8 | 39,7538% | 38,34% | 35,1963% | 33,8157% | 30,3061% | 12.8 ± 0.07 | 15.1 ± 0.029 | 36.35 ± 0.01 | 69,0066% | 60,8505% | 56,1818% | 42,7495% | 19.31 ± 0.08 | 1.07 ± 0.048 | melting point: 183 to 185 °C; IC50 ([5]; IC50 α-Glucosidase): 7.47 ± 0.05 µM; Cell viability percentage, A549 ([6]; Conc. 50 (µM per method)): 28,8446%
COc1ccc(C2Nc3ccc(Br)cc3C(C)=[N+]2[O-])cc1 (stereo not shown) [Compound 3d] | 37.53 ± 0.18 | 75.1 | 60.1 | 54.1 | 30.6 | 17.6 | 47,0559% | 46,8729% | 44,0286% | 43,2136% | 38,6394% | 13.68 ± 0.09 | 24.42 ± 0.004 | 54.08 ± 0.03 |  |  |  |  | 13.45 ± 0.03 | 9.55 ± 0.006 | melting point: 194 to 196 °C; IC50 ([5]; IC50 α-Glucosidase): 68.2 ± 0.01 µM
CC1=[N+]([O-])C(c2ccccc2)Nc2c(Br)cc(I)cc21 (stereo not shown) [Compound 3m] | 27.97 ± 0.08 | 81.2 | 75 | 51.1 | 42 | 19.1 | 25,998% | 24,1517% | 20,9415% | 20,6088% | 17,6314% | 15.34 ± 0.07 | 55.39 ± 0.002 | 16.73 ± 0.01 | 78,1978% | 68,6691% | 61,413% | 42,2995% | 16.34 ± 0.06 | 8.88 ± 0.011 | melting point: 180 to 181 °C; IC50 ([5]; IC50 α-Glucosidase): 9.14 ± 0.03 µM; Cell viability percentage, A549 ([6]; Conc. 50 (µM per method)): 30,0709%
COc1cccc2c1C(=O)c1c(O)c3c(c(O)c1C2=O)C[C@@](O)(C(=O)CO)C[C@@H]3O[C@H]1C[C@H](N)[C@H](O)[C@H](C)O1 [Doxorubicin, doxorubicin, reference compound] | 0.87 ± 0.04 |  |  |  |  |  |  |  |  |  |  | 0.25 ± 0.05 |  |  |  |  |  |  | 0.36 ± 0.07 |  | 
CC1=[N+]([O-])C(c2ccccc2)Nc2ccc(I)cc21 (stereo not shown) [Compound 3e] | 20.12 ± 0.06 | 69.7 | 60 | 40 | 31.9 | 20 | 27,8443% | 22,0559% | 23,6194% | 19,7272% | 17,2488% | 15.83 ± 0.14 | 52.38 ± 0.003 | 49.5 ± 0.06 | 74,9578% | 64,338% | 52,0419% | 40,2408% | 11.4 ± 0.12 | 1.1 ± 0.031 | melting point: 184 to 186 °C; IC50 ([5]; IC50 α-Glucosidase): 6.04 ± 0.01 µM; Cell viability percentage, A549 ([6]; Conc. 50 (µM per method)): 30,3184%
CC1=[N+]([O-])C(c2ccc(Cl)cc2)Nc2c(I)cc(Br)cc21 (stereo not shown) [Compound 3k] | 21.04 ± 0.05 | 61.3 | 55.4 | 42.5 | 31.6 | 24 | 42,1823% | 41,6001% | 39,6041% | 38,7891% | 38,1737% | 16.65 ± 0.05 | 15 ± 0.005 | 4.46 ± 0.02 | 78,5578% | 73,6416% | 60,0068% | 42,682% | 15.37 ± 0.13 | 4.08 ± 0.038 | IC50 ([5]; read-out: IC50 α-Glucosidase): 13.47 ± 0.04 µM; Cell viability percentage, A549 ([6]; Conc. 50 (µM per method)): 32,6808%
CC1=[N+]([O-])C(c2ccc(F)cc2)Nc2c(I)cc(Br)cc21 (stereo not shown) [Compound 3j] | 32.83 ± 0.06 | 67.6 | 72.8 | 54.5 | 33.9 | 19.4 | 60,354% | 53,8289% | 40,413% | 30,7493% | 22,7375% | 15.06 ± 0.01 | 5.17 ± 0.007 | 17.48 ± 0.03 | 79,064% | 67,1729% | 57,7455% | 42,6257% | 13.7 ± 0.12 | 61.01 ± 0.053 | melting point: 170 to 173 °C; IC50 ([5]; IC50 α-Glucosidase): 19.69 ± 0.01 µM; Cell viability percentage, A549 ([6]; Conc. 50 (µM per method)): 29,7109%
CC1=[N+]([O-])C(c2ccc(Cl)cc2)Nc2ccc(I)cc21 (racemic) [Compound 3g] |  |  |  |  |  |  | 42,0991% | 37,841% | 36,5769% | 35,8117% | 33,9155% |  | 4.25 ± 0.005 | 53.42 ± 0.01 | 72,7416% | 56,2268% | 50,6131% | 43,0757% |  | 26.88 ± 0.043 | Cell viability percentage, HEK293-T ([1]; Conc. 1 (µM per method)): 63,41%; Cell viability percentage, HEK293-T ([1]; Conc. 5 (µM per method)): 46,5251%; Cell viability percentage, HEK293-T ([1]; Conc. 10 (µM per method)): 41,062%; Cell viability percentage, HEK293-T ([1]; Conc. 25 (µM per method)): 31,41%; Cell viability percentage, HEK293-T ([1]; Conc. 50 (µM per method)): 17,0502%; IC50 ([1]; MTT, normal cell line, mean ± SD, triplicate, 1-50 µM): 21.7 ± 0.13 µM; IC50 ([3]; read-out: IC50 MCF-7, MTT, mean ± SD, triplicate, 1-50 µM): 10.38 ± 0.08 µM; IC50 ([5]; read-out: IC50 α-Glucosidase): 15.08 ± 0.08 µM; Cell viability percentage, A549 ([6]; Conc. 50 (µM per method)): 33,0296%; IC50 ([6]; read-out: IC50 A549, MTT, mean ± SD, triplicate, 1-50 µM): 18.63 ± 0.11 µM
